Data from patent US20140315876A1, “BETA-LACTAMASE INHIBITORS” (priority 2013, published 2014).
Structures can show the parent of a compound that is named as a salt.

Tests used:
[1] = tested on: bacterial strains that express KPC β-lactamases; test: Synergy MIC / standard BLI potentiation MIC assay, strains expressing KPC β-lactamases; format: cell-based; conditions: more active for at least one KPC strain and/or better spectrum of activity than Avibactam; in the presence of a β-lactam
Experimental: (§1) The experimental protocol was performed according to Clinical and Laboratory Standards Institute (CLSI) guidelines with modifications as described below (CLSI guidelines can be derived from the CLSI document M07-A9 published in January 2012: “Methods for Dilution Antimicrobial Susceptibility Tests for Bacteria That Grow Aerobically; Approved Standard-Ninth Edition”).
(§2) To prepare for MIC testing, frozen glycerol stocks of clinical isolates (Klebsiella pneumoniae, Eschericia coli, Enterobacter spp, Citrobacter spp, or Pseudomonas aeruginosa) were used to streak for isolated colonies on rich, non-selective, tryptic soy agar containing 5% sheep's blood (TSAB). Frozen glycerol stocks of laboratory engineered, isogenic E. coli strains, which contain cloned β-lactamase expressing plasmids were used to streak for isolated colonies on rich, selective LB agar supplemented with 25 μg/mL tetracycline to maintain the plasmid. All strains were incubated at 37° C. for 18-24 hrs.
(§3) On the day of testing, primary cultures were started by scraping off 5-10 colonies from the TSAB plates containing clinical strains or the tetracycline supplemented LB plates containing engineered strains. The clinical strain material was suspended in ˜5 mL of cation adjusted Mueller Hinton Broth (CAMHB) in 14 mL culture tubes. The engineered strain material was suspended in CAMHB (supplemented with 25 μg/mL tetracycline) in 14 mL culture tubes. All strains were incubated at 37° C. with aeration (200 rpm) for ˜2 hrs until the optical density at 600 nm (OD600) was ≧0.1.
(§4) The two compound components of the assay were each diluted in CAMHB and added to the 96-well broth microdilution assay plates. 50 μL of the β-lactam was added to each well of the assay plate in 2-fold dilutions with final concentrations ranging from 128 to 0.13 μg/mL. 25 μL of the BLI compound was added to all wells in the broth microdilution plates at a final concentration of 4 μg/mL. Inoculum cultures were prepared by standardizing the primary cultures to OD600=0.1 and then adding 20 μL of the adjusted primary culture per 1 mL CAMHB for clinical strains or CAMHB (supplemented with tetracycline at 100 μg/mL) for engineered strains, so that the final inoculum density was ˜10^5 colony forming units per milliliter. Diluted inoculum cultures were used to inoculate 25 μL per well in 96-well broth microdilution assay plates. The final volume of each well was 100 μL and contained a β-lactam at different concentrations, a BLI compound at 4 μg/mL concentration, the bacterial culture at an OD600 of approximately 0.001 and when necessary tetracycline at 25 μg/mL.
(§5) Plates were incubated for 18-20 hours at 37° C. with aeration (200 rpm). Following incubation, growth was confirmed visually placing plates over a viewing apparatus (stand with a mirror underneath) and then OD600 was measured using a SpectraMax 340PC384 plate reader (Molecular Devices, Sunnyvale, Calif.). Growth was defined as turbidity that could be detected with the naked eye or achieving minimum OD600 of 0.1. MIC values were defined as the lowest concentration producing no visible turbidity.
(§6) The synergy MIC (sMIC) assay determines the concentration of the BLI required to potentiate the activity of a fixed concentration of a β-lactam antibiotic against β-lactamase producing bacterial strains. The experimental protocol was performed according to Clinical and Laboratory Standards Institute (CLSI) guidelines with modifications as described below (CLSI guidelines can be derived from the CLSI document M07-A9 published in January 2012: “Methods for Dilution Antimicrobial Susceptibility Tests for Bacteria That Grow Aerobically; Approved Standard-Ninth Edition”). […]

[2] = tested on: bacterial strains that express the class D cephalosporinase OXA-15; test: Synergy MIC / standard BLI potentiation MIC assay, strains expressing OXA-15; format: cell-based, E. coli; conditions: in the presence of a β-lactam; comparator Avibactam (comparator compound CCC)
Experimental: as §1, §2, §3, §4, §5, §6

Structure (SMILES) | activity and/or spectrum of activity against bacterial strains that express KPC β-lactamases, compared with Avibactam [1] | activity against bacterial strains that express the class D cephalosporinase OXA-15, compared with Avibactam [2]
N[C@H]1C[C@H](c2nnc([C@@H]3CC[C@@H]4CN3C(=O)N4OS(=O)(=O)O)o2)C1 [Compound 727, (2S,5R)-2-(5-((1r,3S)-3-aminocyclobutyl)-1,3,4-oxadiazol-2-yl)-7-oxo-1,6-diazabicyclo[3.2.1]octan-6-yl hydrogen sulfate] | more active than Avibactam | more active than Avibactam
N[C@H]1C[C@@H](Cc2nnc([C@@H]3CC[C@@H]4CN3C(=O)N4OS(=O)(=O)O)o2)C1 [Compound 728, (2S,5R)-2-(5-(((1s,3R)-3-aminocyclobutyl)methyl)-1,3,4-oxadiazol-2-yl)-7-oxo-1,6-diazabicyclo[3.2.1]octan-6-yl hydrogen sulfate] | more active than Avibactam | more active than Avibactam
N[C@@H]1CC[C@H](c2nnc([C@@H]3CC[C@@H]4CN3C(=O)N4OS(=O)(=O)O)o2)C1 [Compound 729, (2S,5R)-2-(5-((1S,3R)-3-aminocyclopentyl)-1,3,4-oxadiazol-2-yl)-7-oxo-1,6-diazabicyclo[3.2.1]octan-6-yl hydrogen sulfate] | more active than Avibactam | more active than Avibactam
N=C(N)NCC(O)Cc1nnc([C@@H]2CC[C@@H]3CN2C(=O)N3OS(=O)(=O)O)o1 (stereo partly drawn) [Compound 730, (2S,5R)-2-(5-(3-guanidino-2-hydroxypropyl)-1,3,4-oxadiazol-2-yl)-7-oxo-1,6-diazabicyclo[3.2.1]octan-6-yl hydrogen sulfate] | more active than Avibactam | more active than Avibactam
N=C(N)NC[C@@H](O)c1nnc([C@@H]2CC[C@@H]3CN2C(=O)N3OS(=O)(=O)O)o1 [Compound 731, (2S,5R)-2-(5-((R)-2-guanidino-1-hydroxyethyl)-1,3,4-oxadiazol-2-yl)-7-oxo-1,6-diazabicyclo[3.2.1]octan-6-yl hydrogen sulfate] | more active than Avibactam | more active than Avibactam
N=C(N)NC[C@H](O)c1nnc([C@@H]2CC[C@@H]3CN2C(=O)N3OS(=O)(=O)O)o1 [Compound 732, (2S,5R)-2-(5-((S)-2-guanidino-1-hydroxyethyl)-1,3,4-oxadiazol-2-yl)-7-oxo-1,6-diazabicyclo[3.2.1]octan-6-yl hydrogen sulfate] | more active than Avibactam | more active than Avibactam
CNCCCc1nnc([C@@H]2CC[C@@H]3CN2C(=O)N3OS(=O)(=O)O)o1 [Compound 734, (2S,5R)-2-(5-(3-(methylamino)propyl)-1,3,4-oxadiazol-2-yl)-7-oxo-1,6-diazabicyclo[3.2.1]octan-6-yl hydrogen sulfate] | more active than Avibactam | more active than Avibactam
NCCCCc1nnc([C@@H]2CC[C@@H]3CN2C(=O)N3OS(=O)(=O)O)o1 [Compound 735, (2S,5R)-2-(5-(4-aminobutyl)-1,3,4-oxadiazol-2-yl)-7-oxo-1,6-diazabicyclo[3.2.1]octan-6-yl hydrogen sulfate] | more active than Avibactam | more active than Avibactam
O=C1N2C[C@@H](CC[C@H]2c2nnc(CCNCCO)o2)N1OS(=O)(=O)O [Compound 736, (2S,5R)-2-(5-(2-((2-hydroxyethyl)amino)ethyl)-1,3,4-oxadiazol-2-yl)-7-oxo-1,6-diazabicyclo[3.2.1]octan-6-yl hydrogen sulfate] | more active than Avibactam | more active than Avibactam
CC(C)(N)Cc1nnc([C@@H]2CC[C@@H]3CN2C(=O)N3OS(=O)(=O)O)o1 [Compound 737, (2S,5R)-2-(5-(2-amino-2-methylpropyl)-1,3,4-oxadiazol-2-yl)-7-oxo-1,6-diazabicyclo[3.2.1]octan-6-yl hydrogen sulfate] | more active than Avibactam | more active than Avibactam
N=C(N)Nc1nnc([C@@H]2CC[C@@H]3CN2C(=O)N3OS(=O)(=O)O)o1 [Compound 738, (2S,5R)-2-(5-guanidino-1,3,4-oxadiazol-2-yl)-7-oxo-1,6-diazabicyclo[3.2.1]octan-6-yl hydrogen sulfate] | more active than Avibactam | more active than Avibactam
N=C(N)NC1(Cc2nnc([C@@H]3CC[C@@H]4CN3C(=O)N4OS(=O)(=O)O)o2)CC1 [Compound 739, (2S,5R)-2-(5-((1-guanidinocyclopropyl)methyl)-1,3,4-oxadiazol-2-yl)-7-oxo-1,6-diazabicyclo[3.2.1]octan-6-yl hydrogen sulfate] | more active than Avibactam | more active than Avibactam
O=C1N2C[C@@H](CC[C@H]2c2nnc([C@H]3[C@@H]4CNC[C@@H]43)o2)N1OS(=O)(=O)O [Compound 740, (2S,5R)-2-(5-(3-azabicyclo[3.1.0]hexan-6-yl)-1,3,4-oxadiazol-2-yl)-7-oxo-1,6-diazabicyclo[3.2.1]octan-6-yl hydrogen sulfate] | more active than Avibactam | more active than Avibactam
N=C(N)N1CC(Cc2nnc([C@@H]3CC[C@@H]4CN3C(=O)N4OS(=O)(=O)O)o2)C1 [Compound 741, (2S,5R)-2-(5-((1-carbamimidoylazetidin-3-yl)methyl)-1,3,4-oxadiazol-2-yl)-7-oxo-1,6-diazabicyclo[3.2.1]octan-6-yl hydrogen sulfate] | more active than Avibactam | more active than Avibactam
O=C1N2C[C@@H](CC[C@H]2c2nnc(CCC3CNC3)o2)N1OS(=O)(=O)O [Compound 742, (2S,5R)-2-(5-(2-(azetidin-3-yl)ethyl)-1,3,4-oxadiazol-2-yl)-7-oxo-1,6-diazabicyclo[3.2.1]octan-6-yl hydrogen sulfate] | more active than Avibactam | more active than Avibactam
